Experiments:
[1] = Vasodilator activity (vasodilation of the ocular conjunctiva in guinea pigs); assay type: in vivo, guinea pig
[2] = Protection against hepatic intoxication by CCl4 and cold, Compound B (BSF in blood); assay type: in vivo; conditions: 500 mg/kg endoperitoneal
Experimental: Oral administration of 5 ml/kg of a 20% solution of CCl4 in oil, with simultaneous endoperitoneal administration of 500 mg/kg of Compound B, was followed by exposure for 5 hours at 4° C. BSF in the blood (30 mg/kg i.v.) was tested. A comparison product, homocysteinethiolactone (OCT) was employed.
10 Animals were treated per group, and the results expressed as percentage change with respect to the controls were as shown in Table 4.

[3] = Antilipemic action, Morris, Handler or Nath diet, Compound B; assay type: in vivo, Wistar rat; conditions: 45 days, 200 mg/kg orally
Experimental: Wistar rats were treated for 45 days with a Morris diet, a Handler diet or a Nath diet. Simultaneously with the diet they received each day 200 mg/kg of Compound B or choline (except for the Nath diet) orally.

[4] = Antilipemic action, Morris or Handler diet, Compound A; assay type: in vivo, Wistar rat; conditions: 50 days, 200 mg/kg orally
Experimental: Wistar rats were treated for 50 days with a Morris diet or a Handler diet. Simultaneously with the diet they received 200 mg/kg of Compound A or of choline orally every day. The controls only received the diet. The following were examined at the end of the treatment: (a) total cholesterol, total lipids and beta-lipoproteins in the serum, (b) BSF excretion in the bile.

[5] = Choleretic activity in cannulated rats; assay type: in vivo, rat; conditions: for Bile dry residue change / Bile volume change / Bile dry residue after 2 h / Bile volume after 2 h: 100 mg/kg i.v.; for Bile dry residue after 2 h / Bile volume after 2 h: given after first hour; for Bile dry residue after 1 h / Bile volume after 1 h: before treatment (first hour)
Experimental: Rats were fitted with a cannula, the bile volume was measured after the first hour, they were then treated with a test compound and the bile volume was measure after the second hour, so as to determine the percentage change. The various compounds were administered intravenously at a dose of 100 mg/kg.

O=C(O)C(O)C(O)C(=O)O.OCc1cccnc1 (stereo not shown) [3-Pyridylcarbinol tartrate, 3-pyridylcarbinol tartrate]
Vasodilator effect: duration ([1]; 0.1 mg/kg endoperitoneal): 0 min | Vasodilator effect: positive response ([1]; 0.1 mg/kg endoperitoneal): 0% | Vasodilator effect: time of appearance ([1]; 0.1 mg/kg endoperitoneal): 0 s | Vasodilator effect: positive response ([1]; 1.0 mg/kg endoperitoneal): 40% | Vasodilator effect: duration ([1]; 10.0 mg/kg endoperitoneal): 120 min | Vasodilator effect: positive response ([1]; 10.0 mg/kg endoperitoneal): 100% | Vasodilator effect: time of appearance ([1]; 10.0 mg/kg endoperitoneal): 57 s

NC1CCSC1=O (stereo not shown) [OCT, homocysteinethiolactone, reference compound]
Hepatic intoxication protection, percentage change of BSF in blood vs controls ([2]; test number 1): -22.7% | Hepatic intoxication protection, percentage change of BSF in blood vs controls ([2]; test number 2): -18.5%

O=C(OC1C(OC(=O)c2cccnc2)C(OC(=O)c2cccnc2)C(OC(=O)c2cccnc2)C(OC(=O)c2cccnc2)C1OC(=O)c1cccnc1)c1cccnc1 (stereo not shown) [Mesoinosital hexanicotinate, mesoinosital hexanicotinate]
Vasodilator effect: duration ([1]; 1.0 mg/kg endoperitoneal): 0 min | Vasodilator effect: positive response ([1]; 1.0 mg/kg endoperitoneal): 0% | Vasodilator effect: duration ([1]; 10.0 mg/kg endoperitoneal): 87 min | Vasodilator effect: positive response ([1]; 10.0 mg/kg endoperitoneal): 100% | Vasodilator effect: time of appearance ([1]; 10.0 mg/kg endoperitoneal): 81 s

C[N+](C)(C)CCO [Choline, choline, reference compound]
Bile BSF, percentage change vs control ([3]; Handler diet, B and Choline): -39.5% | Liver total lipids, percentage change vs control ([3]; Handler diet, B and Choline): -29.2% | Serum total cholesterol, percentage change vs control ([3]; Handler diet, B and Choline): -21.1% | Serum total lipids, percentage change vs control ([3]; Handler diet, B and Choline): +44.2% | Bile BSF, percentage change vs control ([3]; Morris diet): -2.8% | Liver total lipids, percentage change vs control ([3]; Morris diet): +14.0% | Serum beta-lipoproteins, percentage change vs control ([3]; Morris diet): +89.8% | Serum total cholesterol, percentage change vs control ([3]; Morris diet): -22.9% | Serum total lipids, percentage change vs control ([3]; Morris diet): +2.3% | Bile BSF excretion, percentage change vs controls ([4]; Handler diet): -39.5% | Serum total cholesterol, percentage change vs controls ([4]; Handler diet): -21.1% | Serum total lipids, percentage change vs controls ([4]; Handler diet): +44.2% | Bile BSF excretion, percentage change vs controls ([4]; Morris diet): -2.8% | Serum beta-lipoproteins, percentage change vs controls ([4]; Morris diet): +89.8% | Serum total cholesterol, percentage change vs controls ([4]; Morris diet): -22.9% | Serum total lipids, percentage change vs controls ([4]; Morris diet): +2.3%

O=S(=O)(O)CCNCCO [N-hydroxyethyltaurine]
Bile dry residue change [5]: -10.9% | Bile volume change [5]: -12.2% | Bile dry residue after 2 h [5]: 26.0 mg/h | Bile volume after 2 h [5]: 0.72 mL/h | Bile dry residue after 1 h [5]: 29.1 mg/h | Bile volume after 1 h [5]: 0.82 mL/h

CCC(C(=O)O)C1(O)CCC(c2ccccc2)CC1 (stereo not drawn) [α-(1-hydroxy-4-phenylcyclohexyl)butyric acid]
Bile dry residue change [5]: +39.1% | Bile volume change [5]: +90.0% | Bile dry residue after 2 h [5]: 32.7 mg/h | Bile volume after 2 h [5]: 1.14 mL/h | Bile dry residue after 1 h [5]: 23.5 mg/h | Bile volume after 1 h [5]: 0.60 mL/h

O=C(O)c1cccnc1 [Nicotinic acid, nicotinic acid]
Vasodilator effect: duration ([1]; 10.0 mg/kg endoperitoneal): 0 min | Vasodilator effect: positive response ([1]; 10.0 mg/kg endoperitoneal): 0% | Vasodilator effect: time of appearance ([1]; 10.0 mg/kg endoperitoneal): 0 s | Vasodilator effect: positive response ([1]; 25.0 mg/kg endoperitoneal): 20% | Vasodilator effect: duration ([1]; 50.0 mg/kg endoperitoneal): 87 min | Vasodilator effect: positive response ([1]; 50.0 mg/kg endoperitoneal): 80% | Vasodilator effect: time of appearance ([1]; 50.0 mg/kg endoperitoneal): 180 s

From patent US4259332A, “Novel taurine derivatives” (priority 1979, dated 1981)
